Experiments:
[1] = target: T1, M3 muscarinic receptor subtype (hM3) (Homo sapiens, UniProt P20309); test: Radioligand binding assay ([3H]-NMS displacement, CHO cell membranes); conditions: [3H]-NMS 1 nM, 60 minutes at 37° C.
T1 construct: expressed in transfected cells
Method: A. Membrane Preparation from Cells Expressing hM1, hM2, hM3 and hM4 Muscarinic Receptor Subtypes
CHO cell lines stably expressing cloned human hM1, hM2, hM3 and hM4 muscarinic receptor subtypes, respectively, were grown to near confluency in medium consisting of HAM's F-12 supplemented with 10% FBS and 250 μg/mL Geneticin. The cells were grown in a 5% CO2, 37° C. incubator and lifted with 2 mM EDTA in dPBS. Cells were collected by 5 minute centrifugation at 650×g, and cell pellets were either stored frozen at −80° C. or membranes were prepared immediately. For membrane preparation, cell pellets were resuspended in lysis buffer and homogenized with a Polytron PT-2100 tissue disrupter (Kinematica AG; 20 seconds×2 bursts). […] The protein concentration of the membrane suspension was determined by the method described in Lowry, O. et al., […] 193:265 (1951). […]
Radioligand binding assays were performed in 96-well microtiter plates in a total assay volume of 100 μL. […] Filter plates were rinsed three times with wash buffer (10 mM HEPES) to remove unbound radioactivity. […] The plates were then counted in a PerkinElmer Topcount liquid scintillation counter (PerkinElmer Inc., Wellesley, Mass.). Binding data were analyzed by nonlinear regression analysis with the GraphPad Prism Software package (GraphPad Software, Inc., San Diego, Calif.) using the one-site competition model. […]

[2] = target: T2, hM3 receptor (Homo sapiens, UniProt P20309); test: Blockade of agonist-mediated calcium release via FLIPR; format: cell-based; conditions: CHO cells stably expressing the hM3 receptor, oxotremorine EC90
T2 construct: expressed in transfected cells
Text: C. Blockade of Agonist-Mediated Calcium Release Via FLIPR Assays
Muscarinic receptor subtypes (M1, M3 and M5 receptors), which couple to Gq proteins, activate the phospholipase C (PLC) pathway upon agonist binding to the receptor. As a result, activated PLC hydrolyzes phosphatyl inositol diphosphate (PIP2) to diacylglycerol (DAG) and phosphatidyl-1,4,5-triphosphate (IP3), which in turn generates calcium release from intracellular stores, i.e., endoplasmic and sarcoplasmic reticulum. […] This fluorescence event is measured in real time by the FLIPR, which detects the change in fluorescence from a monolayer of cells cloned with human M1 and M3, and chimpanzee M5 receptors. Antagonist potency is determined by the ability of antagonists to inhibit agonist-mediated increases in intracellular calcium. […]
To determine antagonist potency, the dose-dependent stimulation of intracellular Ca^2+ release for oxotremorine was first determined so that antagonist potency can later be measured against oxotremorine stimulation at an EC90 concentration. […]
The parameters used for the FLIPR were: exposure length of 0.4 seconds, laser strength of 0.5 watts, excitation wavelength of 488 nm, and emission wavelength of 550 nm. Baseline was determined by measuring the change in fluorescence for 10 seconds prior to addition of agonist. […]

T2 sequence (P20309 whole entry): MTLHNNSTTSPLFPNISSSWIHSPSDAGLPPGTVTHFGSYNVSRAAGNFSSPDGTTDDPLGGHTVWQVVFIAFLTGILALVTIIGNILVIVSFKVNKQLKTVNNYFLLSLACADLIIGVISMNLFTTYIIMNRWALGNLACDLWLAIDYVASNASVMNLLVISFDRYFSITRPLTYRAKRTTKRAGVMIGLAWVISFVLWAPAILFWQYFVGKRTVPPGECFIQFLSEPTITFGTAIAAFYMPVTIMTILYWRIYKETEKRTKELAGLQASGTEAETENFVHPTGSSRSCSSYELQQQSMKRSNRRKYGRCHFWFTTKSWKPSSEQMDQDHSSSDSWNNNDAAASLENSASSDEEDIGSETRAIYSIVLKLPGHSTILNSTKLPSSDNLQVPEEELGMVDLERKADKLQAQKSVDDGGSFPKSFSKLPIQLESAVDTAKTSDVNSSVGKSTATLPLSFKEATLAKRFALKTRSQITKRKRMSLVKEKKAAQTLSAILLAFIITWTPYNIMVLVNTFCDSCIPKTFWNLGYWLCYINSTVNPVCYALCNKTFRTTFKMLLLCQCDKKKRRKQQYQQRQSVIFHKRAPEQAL
T1 sequence (P20309 whole entry): as above

- Ki [1]: ~0.96 nM
- Ki [2]: < 5 nM
SMILES: CNCCCCCCCCN1CC[C@@H](C(C(N)=O)(c2ccccc2)c2ccccc2)C1 [compound of formula I, 2-[(S)-1-(8-methylaminooctyl)pyrrolidin-3-yl]-2,2-diphenylacetamide]

Source: patent publication US7524880B2, “Crystalline form of a substituted pyrrolidine compound” (Theravance, Inc., priority 2004, dated 2009)
